From ChEMBL document CHEMBL3862018, “Structure-activity of antifungal compounds inspired by aminobisabolenes from the sponge Halichondria sp” (2016)
Values after ≈ are worked out from the molar mass of the structure shown.

Tests used:
[1] = Antifungal activity against Candida glabrata after 24 hrs by microbroth dilution method; format: functional; conditions: Nakaseomyces glabratus
Candida albicans = assay: Antifungal activity against Candida albicans ATCC 14503 after 24 hrs by microbroth dilution method; format: functional; conditions: ATCC 14503, 24 h
[2] = Antifungal activity against Candida krusei after 24 hrs by microbroth dilution method; format: functional; conditions: Pichia kudriavzevii
[3] = tested on: Cryptococcus gattii species complex; assay: Antifungal activity against Cryptococcus gattii after 24 hrs by microbroth dilution method; format: functional, Cryptococcus bacillisporus
[4] = Antifungal activity against Trichophyton rubrum MRL666 after 72 hrs by CLSI M38-A method; format: functional

Q: Which MIC90 [1] does the source give for CC(C)CCC[C@](C)(N)C1CCC(C)CC1 (some centres not stated) here?
A: Its MIC90 is 18 µM (≈ 4.06 µg/mL).

Q: What about the MIC90 (Candida albicans) of the same compound?
A: The MIC90 was 50 µM (≈ 11.3 µg/mL).

Q: What about the MIC90 [2] of the same compound?
A: The MIC90 was 14 µM (≈ 3.16 µg/mL).

Q: What about the MIC90 [3] of the same compound?
A: The MIC90 was 18 µM (≈ 4.06 µg/mL).

Q: With CC(C)=CCC[C@@](C)([C@H]1CC=C(C)CC1)N(C)Cc1cccc2ccccc12 as the compound, how does the MIC90 [4] read?
A: Its MIC90 is over 250 µM.

Q: And the MIC90 (Candida albicans)?
A: Its MIC90 is over 250 µM.

Q: And the MIC90 [3]?
A: Its MIC90 is over 250 µM.

Q: Which results are given for C[C@@H]1[C@H](O)[C@@H](C)/C=C/C=C/C=C/C=C/C=C/C=C/C=C/[C@H](O[C@@H]2O[C@H](C)[C@@H](O)[C@H](N)[C@@H]2O)C[C@@H]2O[C@](O)(C[C@@H](O)C[C@@H](O)[C@H](O)CC[C@@H](O)C[C@@H](O)CC(=O)O[C@H]1C)C[C@H](O)[C@H]2C(=O)O [AMPHOTERICIN B]?
A: MIC90 [1]: 0.2 µM (≈ 0.185 µg/mL); MIC90 (Candida albicans): 0.3 µM (≈ 0.277 µg/mL); MIC90 [2]: 0.5 µM (≈ 0.462 µg/mL); MIC90 [3]: 0.1 µM (≈ 0.0924 µg/mL)

Q: With CN(C/C=C/C#CC(C)(C)C)Cc1cccc2ccccc12 [TERBINAFINE] as the compound, how does the MIC90 [1] read?
A: The MIC90 was over 250 µM.

Q: What about the MIC90 (Candida albicans) of the same compound?
A: Its MIC90 is over 250 µM.

Q: What about the MIC90 [2] of the same compound?
A: Its MIC90 is over 250 µM.

Q: And the MIC90 [3]?
A: The MIC90 was 5.3 µM (≈ 1.54 µg/mL).

Q: Which results are given for CC(C)CCC[C@@](C)(C1CCC(C)CC1)N(C)C (some centres not stated)?
A: MIC90 [1]: 139 µM (≈ 35.2 µg/mL); MIC90 (Candida albicans): 142 µM (≈ 36 µg/mL); MIC90 [2]: 58 µM (≈ 14.7 µg/mL); MIC90 [3]: 31 µM (≈ 7.86 µg/mL)

Q: For CC(C)=CCC[C@](C)(NCc1cccc2ccccc12)[C@H]1CC=C(C)CC1, which MIC90 [4] is on record?
A: Its MIC90 is 70 µM (≈ 25.3 µg/mL).

Q: What about the MIC90 (Candida albicans) of the same compound?
A: The MIC90 was over 250 µM.

Q: And the MIC90 [3]?
A: The MIC90 was over 250 µM.

Q: What does the source list for CC(C)=CCC[C@](C)(N)[C@H]1CC=C(C)CC1?
A: MIC90 [1]: 38 µM (≈ 8.41 µg/mL); MIC90 [4]: 17 µM (≈ 3.76 µg/mL); MIC90 (Candida albicans): 72 µM (≈ 15.9 µg/mL); MIC90 [2]: 36 µM (≈ 7.97 µg/mL); MIC90 [3]: 53 µM (≈ 11.7 µg/mL)
